Common to all, as to assay: NCI-60 cell line screen, 48 h
The test system of assay [1] is UACC-62.
The test system of assay [2] is SW-620.
Assay [3] has as its system ACHN.
The subject of assay [4] is NCI-H226.
Assay [5] has as its system DU-145.
For assay [6], the system named is NCI-H23.
Assay [7] has as its system MCF7.
The test system of assay [8] is HOP-62.
In assay [9] the test system is A549.
For assay [10], the system named is SF-295.
Assay [11] relates to MOLT-4.
In assay [12] the test system is KM12.
Assay [13] deals with NCI-H522.
Assay [14] concerns EKVX.
In assay [15] the test system is NCI-H460.
Assay [16] relates to OVCAR-5.
For assay [17], the system named is SNB-19.
Assay [18] has as its system CCRF-CEM.
In assay [19] the test system is BT-549.
In assay [20] the test system is HCC 2998.

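These data come from cells grown in 96-well plates and exposed to compound for 48 hours at five concentrations. The concentration for 50% growth inhibition is given as GI50.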 Activity calls are given as the source filed them. Rule as the data show it: active = GI50 up to about 1.1 µM and inactive = higher.

With `O=[N+]([O-])c1ccc(S(=O)(=O)Cc2ccccc2)c2nonc12`, the GI50 in [1] was 17.8 µM (inactive); in [2], 22.1 µM (inactive); in assay [3] it was 22 µM (inactive); in assay [4], > 100 µM (inactive); in assay [5], 18.7 µM (inactive); in assay [6] it was 19.1 µM (inactive). Also, the GI50 is 20.2 µM (inactive) in [7]; 22.7 µM (inactive) in assay [8]; 29.4 µM (inactive) in assay [9]; > 100 µM (inactive) in [10]; 18.7 µM (inactive) in [11]; 19.5 µM (inactive) in assay [12]. The GI50 in assay [13] was 18.8 µM (inactive); in [14], 21.1 µM (inactive); in assay [15], 21.1 µM (inactive); in assay [16], 58.2 µM (inactive); in assay [17], 37 µM (inactive); in assay [18], 9.06 µM (inactive). In addition, the GI50 in assay [19] was 18.5 µM (inactive).

Take `CN(CC(=O)O)c1ccc(/C=C/c2ccnc3ccccc23)cc1`: the GI50 in [1] is 19.6 µM (inactive); in [2], 29.4 µM (inactive); in assay [3], 34.4 µM (inactive); in assay [5] it was 33.6 µM (inactive); in assay [6] it was 33.3 µM (inactive); in [20], 25.4 µM (inactive). For the same compound, the GI50 was 5.02 µM (inactive) in assay [7]; 31.3 µM (inactive) in assay [8]; 17.5 µM (inactive) in assay [9]; 18.1 µM (inactive) in assay [10]; 13.2 µM (inactive) in assay [12]; 5.47 µM (inactive) in assay [13]. For the same compound, the GI50 is 4.47 µM (inactive) in [14]; 21.4 µM (inactive) in assay [15]; 29.2 µM (inactive) in assay [16]; 30.1 µM (inactive) in assay [17]; 13.8 µM (inactive) in assay [18]; 16.3 µM (inactive) in [19].

`Cc1cc(O)c2c(c1O)C(=O)C1=C(C2=O)C(=O)C2C(O)C1C1C(O)CC(O)=C3C(=O)c4c(O)cc(C)c(O)c4C(=O)C321` (stereo unspecified): the GI50 in assay [1] is 1.12 µM (active); in assay [2], 1.45 µM (inactive); in [3] it was 1.35 µM (inactive); in assay [4] it was 0.885 µM (active); in assay [5], 1.32 µM (inactive); in assay [6], 2.73 µM (inactive). For the same compound, the GI50 in assay [20] is 1.18 µM (inactive); in [7], 2.62 µM (inactive); in [8], 2.48 µM (inactive); in assay [9], 0.693 µM (active); in assay [10] it was 0.386 µM (active); in assay [11], 1.52 µM (inactive). Moreover, the GI50 is 0.697 µM (active) in assay [12]; 1.98 µM (inactive) in assay [14]; 1.46 µM (inactive) in [15]; 3.62 µM (inactive) in assay [16]; 1.2 µM (inactive) in assay [17]; 0.577 µM (active) in assay [18]. In addition, the GI50 in assay [19] was 3.66 µM (inactive).

Consider `COc1ccc(C2C3CCc4ccccc4C3=NN2S(=O)(=O)c2ccc(Cl)cc2)cc1` (stereo unspecified), for which the GI50 was 13.1 µM (inactive) in [1]; 23.2 µM (inactive) in [2]; 15.4 µM (inactive) in assay [3]; 20.7 µM (inactive) in assay [4]; 30 µM (inactive) in assay [5]; 33.3 µM (inactive) in assay [6]. Also, the GI50 in [7] is 4.13 µM (inactive); in assay [8], 31.8 µM (inactive); in assay [9], 27.9 µM (inactive); in [10], 18.2 µM (inactive); in [11], 13.1 µM (inactive); in [12] it was 7.08 µM (inactive). Besides, the GI50 is 9.14 µM (inactive) in assay [13]; 35.7 µM (inactive) in assay [14]; 15.8 µM (inactive) in assay [15]; 47.6 µM (inactive) in assay [16]; 39.2 µM (inactive) in [17]; 17.9 µM (inactive) in [18]. Besides, the GI50 in [19] is 44.7 µM (inactive).

As to `CC(C)(C)c1cc(C(CO)OCCOCCO)cc(C(C)(C)C)c1O` (stereo unspecified), the GI50 in assay [1], in assay [2], in [3], in assay [4], in assay [5] and in assay [6] was > 100 µM (inactive) in each case. The GI50 in [7], in [8], in assay [9], in assay [10], in [12] and in assay [13] was > 100 µM (inactive) in each case. Besides, the GI50 in assay [14], in assay [16], in assay [17], in [18] and in assay [19] was > 100 µM (inactive) each time.

Take `O=C1/C(=C/c2ccc(Cl)cc2)CCC/C1=C\c1ccc(O)c(CN2CCCCC2)c1`: the GI50 in assay [1] was 16.1 µM (inactive); in assay [2], 18 µM (inactive); in assay [3], 15.7 µM (inactive); in assay [4] it was 16.1 µM (inactive); in [5], 17.1 µM (inactive); in assay [6], 19.1 µM (inactive). Further, the GI50 is 20.2 µM (inactive) in [20]; 47.1 µM (inactive) in assay [7]; 39 µM (inactive) in assay [8]; 27.2 µM (inactive) in assay [9]; 14.2 µM (inactive) in assay [10]; 24 µM (inactive) in assay [11]. For the same compound, the GI50 in assay [12] was 4.51 µM (inactive); in assay [14], 18.1 µM (inactive); in [15] it was 19.5 µM (inactive); in assay [16], 23.8 µM (inactive); in assay [17], 33 µM (inactive); in assay [18], 6.01 µM (inactive). Besides, the GI50 in [19] was 11.2 µM (inactive).

On to `O=C1c2ccccc2C(=O)c2nn(N=P(CP(=Nn3nc4c(n3)C(=O)c3ccccc3C4=O)(c3ccccc3)c3ccccc3)(c3ccccc3)c3ccccc3)nc21`, for which the GI50 in [1], in [2], in assay [3], in assay [5], in assay [6] and in assay [20] was > 100 µM (inactive) throughout. Besides, the GI50 in assay [7], in [8], in assay [9], in assay [10], in assay [11] and in assay [12] was > 100 µM (inactive) each time. The GI50 in assay [13], in assay [14], in assay [15], in assay [16], in assay [17] and in [18] was > 100 µM (inactive) each time. In assay [19], the GI50 is > 100 µM (inactive).

`CSc1c(C#N)c2n(c3ccccc13)c1ccccc1[n+]2C`: the GI50 in assay [1] was 16.9 µM (inactive); in [2], 23.8 µM (inactive); in assay [3] it was 18.2 µM (inactive); in assay [5], 29.2 µM (inactive); in [6] it was 25.5 µM (inactive); in assay [20], 27.9 µM (inactive). Further, the GI50 was 35.6 µM (inactive) in assay [7]; 23.1 µM (inactive) in [8]; 24.1 µM (inactive) in assay [9]; 34 µM (inactive) in [10]; 12.9 µM (inactive) in [11]; 28.5 µM (inactive) in assay [12]. The GI50 in assay [13] is 12.3 µM (inactive); in [14] it was 19.1 µM (inactive); in assay [15], 26.4 µM (inactive); in assay [16], 31.4 µM (inactive); in assay [17] it was > 10 µM (inactive); in assay [18], 16 µM (inactive). The GI50 in assay [19] is 19.7 µM (inactive).

Consider `c1ccc2c(c1)NC(C1OC3CCCN3C1C1Nc3ccccc3S1)S2` (stereo unspecified), for which the GI50 is 79.8 µM (inactive) in assay [1]; > 100 µM (inactive) in [2]; > 100 µM (inactive) in assay [3]; > 100 µM (inactive) in assay [5]; 29 µM (inactive) in [6]; > 100 µM (inactive) in [20]. Besides, the GI50 in [7] is 44.2 µM (inactive); in assay [8] it was 97.9 µM (inactive); in assay [9], > 100 µM (inactive); in assay [10] it was 90.6 µM (inactive); in assay [11], 29.9 µM (inactive); in assay [12], 46.5 µM (inactive). Besides, the GI50 in [13] was 28.2 µM (inactive); in assay [14], > 100 µM (inactive); in assay [15], 41.2 µM (inactive); in assay [16] it was > 100 µM (inactive); in [17], > 100 µM (inactive); in [18] it was 35.8 µM (inactive). Besides, the GI50 in [19] was 78.2 µM (inactive).

Turning to `C[B@@-]1(c2ccc(C(F)(F)F)cc2)N[C@@H](Cc2ccccc2)C(=O)O1`, the GI50 in [1], in assay [2], in [3], in [4], in [5] and in assay [6] was > 100 µM (inactive) each time. For the same compound, the GI50 in assay [20], in [7], in [8], in assay [9], in assay [10] and in [11] was > 100 µM (inactive) in each case. In addition, the GI50 in assay [14], in [15], in assay [16], in assay [17], in assay [18] and in [19] was > 100 µM (inactive) each time.

(Values after ChEMBL document CHEMBL1201862, “PubChem BioAssay data set” (2004).)
